Experimental data reported in PMC6934184, “Selective DNA-PKcs inhibition extends the therapeutic index of localized radiotherapy and chemotherapy” (The Journal of Clinical Investigation, 2019).

Molecular target: T1, GSK3B (GSK3 beta) (Homo sapiens, UniProt P49841)
T1 construct: purchased Thermo Fisher Scientific (Life Technologies) SelectScreen
Experiment: SelectScreen Z'LYTE
Type: biochemical
How it was run: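 SelectScreen broad panel; activity (Z'LYTE, Adapta) plus binding formats. ATP: Km app for CSF1R Z'LYTE; 10 for CAMK1 Adapta. Readout = % per kinase.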

T1 sequence (P49841 whole entry): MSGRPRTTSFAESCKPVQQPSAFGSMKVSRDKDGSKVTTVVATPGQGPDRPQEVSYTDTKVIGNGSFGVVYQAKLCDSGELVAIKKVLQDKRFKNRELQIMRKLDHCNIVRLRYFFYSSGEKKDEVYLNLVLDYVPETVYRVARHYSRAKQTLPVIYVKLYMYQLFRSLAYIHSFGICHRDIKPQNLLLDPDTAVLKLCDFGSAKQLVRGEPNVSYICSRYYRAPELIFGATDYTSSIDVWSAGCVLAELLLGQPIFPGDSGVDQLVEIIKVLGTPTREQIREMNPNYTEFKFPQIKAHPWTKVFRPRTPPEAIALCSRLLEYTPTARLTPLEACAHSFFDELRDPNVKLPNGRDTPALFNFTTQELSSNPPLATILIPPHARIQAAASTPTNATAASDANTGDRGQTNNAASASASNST

Work on `CN(C(=O)CN1CCOCC1)c1ccc2sc3c(-c4cccc5c(=O)cc(N6CC7CCC(C6)O7)oc45)cccc3c2c1` [NU5455] yielded an inhibition at 1 µM of -2.5%.
